Experiments:
Del19/T790M/C797S EGFR = assay: EGFR degradation HTRF assay in H1975-clone #28 (DTC) cells; assay type: cell-based; conditions: H1975 # 28 DTC (Del19/T790M/C797S), 16h treatment; for DC50: HTRF; for Dmax (%): maximum percentage of degradation
Outline: (§1)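 Cells carrying only lentiviral mutant EGFR, since endogenous alleles were removed by CRISPR, received compounds on day 2 for 16 h. Final concentrations ran from 10 uM down in 5-fold steps over 8 doses. After lysis, EGFR levels were quantified by HTRF and DC50 derived by curve fitting.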

L858R/T790M/C797S EGFR = target: T1, L858R/T790M/C797S EGFR (Homo sapiens, UniProt P00533, C797S/L858R/T790M); assay: EGFR degradation HTRF assay in H1975-clone #25 (LTC) cells; assay type: cell-based; conditions: 16h treatment; for DC50: H1975 # 25-LTC (L858R/T790M/C797S), HTRF; for Dmax: NCI-H1975, H1975 # 25-LTC (L858R/T790M/C797S), maximum percentage of degradation
T1 construct: expressed in transfected cells; host or cells: H1975 clone #25 (lentiviral over-expression, endogenous EGFR knocked out by sgRNA)
Outline: as §1

T1 sequence (P00533 25-1210 T790M/C797S/L858R): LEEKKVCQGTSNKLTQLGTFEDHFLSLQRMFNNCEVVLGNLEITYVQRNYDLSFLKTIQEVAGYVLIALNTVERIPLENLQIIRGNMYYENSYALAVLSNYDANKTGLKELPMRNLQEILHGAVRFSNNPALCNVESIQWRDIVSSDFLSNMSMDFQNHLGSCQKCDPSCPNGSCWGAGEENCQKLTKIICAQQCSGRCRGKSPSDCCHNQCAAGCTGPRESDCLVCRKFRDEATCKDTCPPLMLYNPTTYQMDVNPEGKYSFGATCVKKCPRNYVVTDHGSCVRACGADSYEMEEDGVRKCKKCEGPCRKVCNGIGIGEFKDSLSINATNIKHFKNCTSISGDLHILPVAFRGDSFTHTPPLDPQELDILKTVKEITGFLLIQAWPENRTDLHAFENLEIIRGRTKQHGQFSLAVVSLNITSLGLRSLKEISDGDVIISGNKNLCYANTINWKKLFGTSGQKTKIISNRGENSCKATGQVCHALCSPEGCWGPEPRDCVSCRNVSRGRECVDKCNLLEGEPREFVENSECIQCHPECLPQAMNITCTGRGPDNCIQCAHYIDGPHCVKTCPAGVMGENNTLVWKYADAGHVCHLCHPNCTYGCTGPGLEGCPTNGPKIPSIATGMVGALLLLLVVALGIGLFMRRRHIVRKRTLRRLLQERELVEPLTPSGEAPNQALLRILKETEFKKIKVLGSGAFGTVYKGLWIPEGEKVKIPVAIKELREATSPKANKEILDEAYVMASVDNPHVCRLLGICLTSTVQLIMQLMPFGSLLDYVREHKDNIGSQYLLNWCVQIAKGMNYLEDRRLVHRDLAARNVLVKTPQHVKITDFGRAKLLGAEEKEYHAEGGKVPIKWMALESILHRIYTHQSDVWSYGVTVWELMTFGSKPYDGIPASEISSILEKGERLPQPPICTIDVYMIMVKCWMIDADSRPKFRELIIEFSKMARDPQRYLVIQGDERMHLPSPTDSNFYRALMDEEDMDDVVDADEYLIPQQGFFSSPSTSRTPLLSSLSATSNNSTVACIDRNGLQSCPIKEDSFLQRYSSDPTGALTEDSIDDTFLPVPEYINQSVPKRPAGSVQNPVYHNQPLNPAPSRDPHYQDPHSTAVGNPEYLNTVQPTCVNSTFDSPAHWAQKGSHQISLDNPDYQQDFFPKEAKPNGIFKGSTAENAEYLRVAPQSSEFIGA

Row | Structure (SMILES) | DC50 (Del19/T790M/C797S EGFR) [nM] | Dmax (%) (Del19/T790M/C797S EGFR) | DC50 (L858R/T790M/C797S EGFR) [nM] | Dmax (L858R/T790M/C797S EGFR) [%]
1 | Cc1cc2cc(n1)-c1cnn(C)c1OCCC[C@@H](C)CN1/C(=N/C2=O)Nc2ccc(CN3CCN(C(=O)C4CN(c5cc(F)c([C@H]6CCC(=O)NC6=O)c(F)c5)C4)CC3)cc21 [Example 76, (R)-3-(2,6-difluoro-4-(3-(4-(((R,E)-1^1,2^6,7-trimethyl-3-oxo-5^2,5-dihydro-1^1H,5^1H-11-oxa-4-aza-5(2,1)-benzo[d]imidazola-2(2,4)-pyridina-1(4,5)-pyrazolacycloundecaphane-5^6-yl)methyl)piperazine-1-carbonyl)azetidin-1-yl)phenyl)piperidine-2,6-dione] | 0.7 | 75.8 | 0.9 | 84.4
2 | Cc1cc2cc(n1)-c1cnn(C)c1OCCC[C@@H](C)CN1/C(=N/C2=O)Nc2ccc(CN3CCN(C(=O)[C@@H]4CCN(c5cc(F)c([C@H]6CCC(=O)NC6=O)c(F)c5)C4)C[C@@H]3CO)cc21 [Example 195, (R)-3-(2,6-difluoro-4-((R)-3-((R)-3-(hydroxymethyl)-4-(((R,E)-1^1,2^5,7-trimethyl-3-oxo-5^2,5^3-dihydro-1^1H,5^1H-11-oxa-4-aza-5(2,1)-benzo[d]imidazola-2(2,4)-pyridina-(4,5)-pyrazolacycloundecaphane-5^6-yl)methyl)piperazine-1-carbonyl)pyrrolidin-1-yl)phenyl)piperidine-2,6-dione] | 0.712 | 76.37 | 0.731 | 85.5
3 | Cc1cc2cc(n1)-c1cnn(C)c1OCCC[C@@H](C)CN1/C(=N/C2=O)Nc2ccc(N3CCN([C@H]4C[C@H](Nc5cc(F)c([C@H]6CCC(=O)NC6=O)c(F)c5)C4)CC3)cc21 (single isomer, unassigned) [Example 444] | 1.3 | 82.11 | 2.1 | 89
4 | Cc1cc2cc(n1)-c1cnn(C)c1OCCC[C@@H](C)CN1/C(=N/C2=O)Nc2ccc(C(=O)N3CC4(C3)CN(C(=O)C3CN(c5cc(F)c([C@H]6CCC(=O)NC6=O)c(F)c5)C3)C4)cc21 [Example 229, (R)-3-(2,6-difluoro-4-(3-(6-((R,E)-1^1,2^6,7-trimethyl-3-oxo-5^2,5^3-dihydro-1^1H,5^1H-11-oxa-4-aza-5(2,1)-benzo[d]imidazola-2(2,4)-pyridina-1(4,5)-pyrazolacycloundecaphane-5^6-carbonyl)-2,6-diazaspiroheptane-2-carbonyl)azetidin-1-yl)phenyl)piperidine-2,6-dione] | 1.79 | 78.12 | 1.27 | 86.9
5 | Cc1cc2cc(n1)-c1cnn(C)c1OCCC[C@@H](C)CN1/C(=N/C2=O)Nc2ccc(C(=O)N(C)[C@H]3CCN(CCc4cc(F)c([C@H]5CCC(=O)NC5=O)c(F)c4)C[C@H]3C)cc21 [Example 256, (R,E)-N-((3R,4S)-1-(4-((R)-2,6-dioxopiperidin-3-yl)-3,5-difluorophenethyl)-3-methylpiperidin-4-yl) -N,1^1,2^6,7-tetramethyl-3-oxo-5^2,5^3-dihydro-1^1H,5^1H-11-oxa-4-aza-5(2,1)-benzo[d]imidazola-2(2,4)-pyridina-1(4,5)-pyrazolacycloundecaphane-5^6-carboxamide] | 0.608 | 83.08 | 0.326 | 88.1
6 | Cc1cc2cc(n1)-c1cnn(C)c1OCC[C@H]1C[C@@H]1CN1/C(=N/C2=O)Nc2ccc(N3CCC(N4CCN(c5cc(F)c([C@H]6CCC(=O)NC6=O)c(F)c5)CC4=O)CC3)cc21 [Example 458, (R)-3-(4-(4-(1-((7'S,7^2R,E)-1^1,2^6-dimethyl-3-oxo-5^2,5^3-dihydro-1^1H,5^1H-10-oxa-4-aza-5(2,1)-benzo[d]imidazola-2(2,4)-pyridina-1(4,5)-pyrazola-7(1,2)-cyclopropanacyclodecaphane-5^6-yl)piperidin-4-yl)-3-oxopiperazin-1-yl)-2,6-difluorophenyl)piperidine-2,6-dione] | 0.985 | 92.47 | 0.809 | 92.7
7 | Cc1cc2cc(n1)-c1cnn(C)c1OCCC[C@@H](C)CN1/C(=N/C2=O)Nc2ccc(CN3CCN(C(=O)[C@@H]4CCN(c5ccc(F)c6c5n(C)c(=O)n6C5CCC(=O)NC5=O)C4)CC3)cc21 (stereo partly drawn) [Example 211, 3-(7-fluoro-3-methyl-2-oxo-4-((R)-3-(4-(((R,E)-1^1,2^6,7-trimethyl-3-oxo-5^2,5^3-dihydro-1^1H,5^1H-11-oxa-4-aza-5(2,1)-benzo[d]imidazola-2(2,4)-pyridina-1(4,5)-pyrazolacycloundecaphane-5^6-yl)methyl)piperazine-1-carbonyl)pyrrolidin-1-yl)-2,3-dihydro-1H-benzo[d]imidazol-1-yl)piperidine-2,6-dione] | 0.901 | 75.24 | 0.852 | 85.1
8 | Cc1cc2cc(n1)-c1cnn(C)c1OCCC[C@@H](C)CN1/C(=N/C2=O)Nc2ccc(N3CCN(CCNc4cc(F)c([C@H]5CCC(=O)NC5=O)c(F)c4)CC3)cc21 (single isomer, unassigned) [Example 368] | 0.623 | 80.06 | 0.546 | 88
9 | CO[C@@H]1CN(CCc2cc(F)c([C@H]3CCC(=O)NC3=O)c(F)c2)CC[C@@H]1N(C)C(=O)c1ccc2c(c1)N1C[C@H](C)CCCOc3c(cnn3C)-c3cc(cc(C)n3)C(=O)/N=C/1N2 [Example 252, (R,E)-N—((3R,4S)-1-(4-((R)-2,6-dioxopiperidin-3-yl)-3,5-difluorophenethyl)-3-methoxypiperidin-4-yl)-N,1^1,2^6,7-tetramethyl-3-oxo-5^2,5^3-dihydro-1^1H,5^1H-11-oxa-4-aza-5(2,1)-benzo[d]imidazola-2(2,4) -pyridina-1(4,5)-pyrazolacycloundecaphane-5^4-carboxamide] | 0.606 | 77.32 | 0.584 | 92.4
10 | Cc1cc2cc(n1)-c1cnn(C)c1OCCC[C@@H](C)CN1/C(=N/C2=O)Nc2ccc(CN3CCN(C(=O)[C@@H]4CCN(c5cc(F)c([C@H]6CCC(=O)NC6=O)c(F)c5)C4(C)C)C[C@@H]3C)cc21 [Example 190, (R)-3-(4-((R)-2,2-dimethyl-3-((S)-3-methyl-4-(((R,E)-1^1,2^6,7-trimethyl-3-oxo-5^2,5^3-dihydro-1^1H,5^1H -11-oxa-4-aza-5(2,1)-benzo[d]imidazola-2(2,4)-pyridina-(4,5)-pyrazolacycloundecaphane-5^6-yl)methyl)piperazine-1-carbonyl)pyrrolidin-1-yl)-2,6-difluorophenyl)piperidine-2,6-dione] | 0.742 | 64.16 | 1.17 | 82.2
11 | Cc1cc2cc(n1)-c1cnn(C)c1OCCC[C@@H](C)CN1/C(=N/C2=O)Nc2ccc(N3CCN(CCNc4cc(F)c([C@H]5CCC(=O)NC5=O)c(F)c4)[C@H](CC#N)C3)cc21 [Example 442, 2-((R)-1-(2-((4-((R)-2,6-dioxopiperidin-3-yl)-3,5-difluorophenyl)amino)ethyl)-4-((R,E)-1^1,2^6,7-trimethyl-3-oxo-5^2,5^3-dihydro-1^1H,5^1H-11-oxa-4-aza-5(2,1)-benzo[d]imidazola-2(2,4)-pyridina-1(4,5)-pyrazolacycloundecaphane-5^6-yl)piperazin-2-yl)acetonitrile] | 0.721 | 70.20 | 0.742 | 84.4
12 | Cc1cc2cc(n1)-c1cnn(C)c1OCCC[C@@H](C)CN1/C(=N/C2=O)Nc2ccc(C(=O)N3CC[C@H]4CN(CCc5cc(F)c([C@H]6CCC(=O)NC6=O)c(F)c5)CC[C@H]43)cc21 [Example 304, (R)-3-(2,6-difluoro-4-(2-((3aS,7aR)-1-((R,E)-1^1,2^6,7-trimethyl-3-oxo-5^2,5^3-dihydro-1^1H,5^1H-11-oxa-4-aza-5(2,1)-benzo[d]imidazola-2(2,4)-pyridina-1(4,5)-pyrazolacycloundecaphane-5^6-carbonyl)octahydro-5H-pyrrolo[3,2-c]pyridin-5-yl)ethyl)phenyl)piperidine-2,6-dione] | 0.595 | 78.73 | 0.61 | 79.9
13 | CO[C@@H]1CN(CCc2cc(F)c([C@H]3CCC(=O)NC3=O)c(F)c2)CC[C@H]1NC(=O)c1ccc2c(c1)N1C[C@H](C)CCCOc3c(cnn3C)-c3cc(cc(C)n3)C(=O)/N=C/1N2 [Example 253, (R,E)-N—((3R,4R)-1-(4-((R)-2,6-dioxopiperidin-3-yl)-3,5-difluorophenethyl)-3-methoxypiperidin-4-yl)-1^1,2^6,7-trimethyl-3-oxo-5^2,5^3-dihydro-1^1H,5^1H-11-oxa-4-aza-5(2,1)-benzo[d]imidazola-2(2,4)-pyridina-1(4,5)-pyrazolacycloundecaphane-5^6-carboxamide] | 0.59 | 82.5 | 0.289 | 93.8
14 | Cc1cc2cc(n1)-c1cnn(C)c1OCCC[C@@H](C)CN1/C(=N/C2=O)Nc2ccc(N3CCC(C(=O)N4CC(Oc5cc(F)c([C@H]6CCC(=O)NC6=O)c(F)c5)C4)CC3)cc21 [Example 403, (R)-3-(2,6-difluoro-4-((1-(1-((R,E)-1^1,2^6,7-trimethyl-3-oxo-5^2,5^3-dihydro-1^1H,5^1H-11-oxa-4-aza-5(2,1)-benzo[d]imidazola-2(2,4)-pyridina-1(4,5)-pyrazolacycloundecaphane-5^6-yl)piperidine-4-carbonyl)azetidin-3-yl)oxy)phenyl)piperidine-2,6-dione] | 0.857 | 82.98 | 1.07 | 87.5
